Key:
[1] = target: T1, Cbl-b (Homo sapiens, UniProt Q13191); assay: Cbl-b Degradation Method A (FACS, anti-Cbl-b antibody staining); type: cell-based; settings: Cbl-b-HiBit KI Jurkat Cells, incubated at least 20 hours; for DC50: half maximal degradation, read-out: Cbl-b Degredation Method A IC50; for Dmax: Jurkat, maximum degradation observed, read-out: Cbl-b Degredation Method A Dmax (%)
T1 construct: Cbl-b-HiBit KI Jurkat Cells were purchased from Promega; host or cells: Cbl-b-HiBiT knock-in Jurkat cells
Method in brief: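 Cbl-b-HiBit KI Jurkat cells treated with compound for at least 20 h at 37 °C, then fixed, permeabilized and stained with anti-Cbl-b antibody plus anti-rabbit AF488 secondary. Cbl-b levels read by FACS; DC50 and Dmax (percent of control) derived.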

[2] = target: T1, Cbl-b; assay: Cbl-b Degradation Method B (Nano-Glo HiBiT lytic detection); type: cell-based; settings: Cbl-b-HiBit KI Jurkat Cells, incubated at least 6-24 hours; for DC50: half maximal degradation, read-out: Cbl-b Degredation Method B IC50; for Dmax: read-out: Cbl-b Degredation Method B Dmax (%)
Method in brief: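 Cbl-b-HiBiT knock-in Jurkat cells (20,000/well) were treated after ~24 h plating with an 11-point 1:3 series for 6-24 h at 37° C. Remaining Cbl-b measured by Nano-Glo HiBiT lytic luminescence. DC50 and Dmax expressed as % of control.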

T1 sequence (Q13191 whole entry): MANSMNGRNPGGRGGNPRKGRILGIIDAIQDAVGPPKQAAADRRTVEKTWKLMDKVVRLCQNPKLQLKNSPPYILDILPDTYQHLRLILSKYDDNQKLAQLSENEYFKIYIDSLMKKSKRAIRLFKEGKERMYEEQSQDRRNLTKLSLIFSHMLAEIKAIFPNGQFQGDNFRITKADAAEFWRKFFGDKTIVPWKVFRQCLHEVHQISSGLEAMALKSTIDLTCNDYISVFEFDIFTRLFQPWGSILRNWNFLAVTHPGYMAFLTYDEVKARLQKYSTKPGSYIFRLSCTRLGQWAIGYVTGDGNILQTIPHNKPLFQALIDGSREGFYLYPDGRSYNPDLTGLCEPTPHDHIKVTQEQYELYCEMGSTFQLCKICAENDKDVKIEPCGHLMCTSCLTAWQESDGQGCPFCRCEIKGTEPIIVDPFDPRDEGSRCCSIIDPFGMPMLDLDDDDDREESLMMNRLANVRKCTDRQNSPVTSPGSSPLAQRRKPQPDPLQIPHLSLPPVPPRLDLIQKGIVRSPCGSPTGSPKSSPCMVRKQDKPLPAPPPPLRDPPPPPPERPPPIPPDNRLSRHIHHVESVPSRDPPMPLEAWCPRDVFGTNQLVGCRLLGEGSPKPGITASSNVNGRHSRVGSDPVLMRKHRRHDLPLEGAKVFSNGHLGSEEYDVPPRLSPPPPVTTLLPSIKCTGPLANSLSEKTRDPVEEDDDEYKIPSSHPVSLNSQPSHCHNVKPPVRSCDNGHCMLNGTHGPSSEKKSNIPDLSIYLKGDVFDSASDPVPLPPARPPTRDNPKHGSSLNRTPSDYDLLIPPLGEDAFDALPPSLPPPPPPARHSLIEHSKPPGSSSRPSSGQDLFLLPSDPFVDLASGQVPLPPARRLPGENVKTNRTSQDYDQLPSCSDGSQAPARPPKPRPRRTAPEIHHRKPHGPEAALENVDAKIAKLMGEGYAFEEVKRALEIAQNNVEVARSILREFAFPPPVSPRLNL

CC(C)n1c(=O)n(C2CCC(=O)NC2=O)c2cccc(N3CCC(O[C@H]4CC[C@H](CN5CCN(Cc6cc7c(c(C(F)(F)F)c6)CN(c6cccc([C@]8(Cc9nncn9C)C[C@@H](C#N)C8)c6)C7=O)C(C)(C)C5)CC4)CC3)c21 (stereo partly shown) [Example 302, (1r,3r)-3-(3-{6-[(2,2-dimethyl-4-{[(1r,4r)-4-({1-[1-(2,6-dioxopiperidin-3-yl)-2-oxo-3-(propan-2-yl)-2,3-dihydro-1H-1,3-benzodiazol-4-yl]piperidin-4-yl}oxy)cyclohexyl]methyl}piperazin-1-yl)methyl]-1-oxo-4-(trifluoromethyl)-2,3-dihydro-1H-isoindol-2-yl}phenyl)-3-[(4-methyl-4H-1,2,4-triazol-3-yl)methyl]cyclobutane-1-carbonitrile]
DC50 [1]: 50 to 500 nM
Dmax [1]: 35 to 70%
DC50 [2]: 5 to 50 nM
Cbl-b Degredation Method B Dmax (%) ([2]; maximum degradation observed): C (C ≤ 35)

Cn1cnnc1CC1(c2cccc(N3Cc4c(cc(CN5CCN(C6CC7(C6)CN(c6ccc8c(c6)C(=O)N(C6CCC(=O)NC6=O)C8=O)C7)CC5)cc4C(F)(F)F)C3=O)c2)COC1 (stereo not shown) [Example 107, 2-(2,6-dioxopiperidin-3-yl)-5-[6-(4-{[2-(3-{3-[(4-methyl-4H-1,2,4-triazol-3-yl)methyl]oxetan-3-yl}phenyl)-3-oxo-7-(trifluoromethyl)-2,3-dihydro-1H-isoindol-5-yl]methyl}piperazin-1-yl)-2-azaspiro[3.3]heptan-2-yl]-2,3-dihydro-1H-isoindole-1,3-dione]
DC50 [1]: 5 to 50 nM
Dmax [1]: < 35%
DC50 [2]: > 500 nM

Cn1cnnc1CC1(c2cccc(N3Cc4c(cc(CN5CCC[C@H](CN6CCC(CN7CC8(C7)CN(c7ccc9c(c7)C(=O)N(C7CCC(=O)NC7=O)C9=O)C8)CC6)C5)cc4C(F)(F)F)C3=O)c2)COC1 (stereo partly drawn) [Example 114, 2-(2,6-dioxopiperidin-3-yl)-5-{6-[(1-{[(3R)-1-{[2-(3-{3-[(4-methyl-4H-1,2,4-triazol-3-yl)methyl]oxetan-3-yl}phenyl)-3-oxo-7-(trifluoromethyl)-2,3-dihydro-1H-isoindol-5-yl]methyl}piperidin-3-yl]methyl}piperidin-4-yl)methyl]-2,6-diazaspiro[3.3]heptan-2-yl}-2,3-dihydro-1H-isoindole-1,3-dione]
DC50 [1]: 5 to 50 nM
Dmax [1]: < 35%
DC50 [2]: 5 to 50 nM
Dmax ([2]; maximum degradation observed): < 35%

Cn1cnnc1C[C@]1(c2cccc(N3Cc4c(cc(N5CC6(CCN(CC7CCN(c8ccc9c(c8Cl)CN(C8CCC(=O)NC8=O)C9=O)CC7)CC6)C5)cc4C(F)(F)F)C3=O)c2)C[C@H](C#N)C1 (stereo partly shown) [Example 173, (1r,3r)-3-(3-{6-[7-({1-[4-chloro-2-(2,6-dioxopiperidin-3-yl)-1-oxo-2,3-dihydro-1H-isoindol-5-yl]piperidin-4-yl}methyl)-2,7-diazaspiro[3.5]nonan-2-yl]-1-oxo-4-(trifluoromethyl)-2,3-dihydro-1H-isoindol-2-yl}phenyl)-3-[(4-methyl-4H-1,2,4-triazol-3-yl)methyl]cyclobutane-1-carbonitrile]
DC50 [1]: 5 to 50 nM
Dmax [1]: > 70%
DC50 [2]: < 5 nM
Dmax ([2]; maximum degradation observed): 35 to 70%

Cn1cnnc1CC1(c2cccc(N3Cc4c(cc(CN5CCC[C@H](CN6CCC(CN7CCC(CN8CCN(c9ccc%10c(c9)C(=O)N(C9CCC(=O)NC9=O)C%10=O)CC8)CC7)CC6)C5)cc4C(F)(F)F)C3=O)c2)COC1 (stereo partly drawn) [Example 97, 2-(2,6-dioxopiperidin-3-yl)-5-[4-({1-[(1-{[(3R)-1-{[2-(3-{3-[(4-methyl-4H-1,2,4-triazol-3-yl)methyl]oxetan-3-yl}phenyl)-3-oxo-7-(trifluoromethyl)-2,3-dihydro-1H-isoindol-5-yl]methyl}piperidin-3-yl]methyl}piperidin-4-yl)methyl]piperidin-4-yl}methyl)piperazin-1-yl]-2,3-dihydro-1H-isoindole-1,3-dione]
DC50 [1]: 5 to 50 nM
Dmax [1]: > 70%
DC50 [2]: < 5 nM
Dmax ([2]; maximum degradation observed): 35 to 70%

Source: patent publication US20260184710A1, “CASITAS B-LINEAGE LYMPHOMA PROTOONCOGENE B (CBL-B) DEGRADING COMPOUNDS AND ASSOCIATED METHODS OF USE” (Arvinas Operations, Inc., priority 2022, published 2026)
